Reference: ChEMBL document CHEMBL1201862, “PubChem BioAssay data set” (2004)
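Assay format: 96-well plates, 48-hour exposure. The concentration for 50% growth inhibition is given as GI50.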 Calls of active or inactive are those of the source. Cut-off read from the data, not from the text of the source: active = GI50 up to about 1.1 µM and inactive = higher.

Assays:
Assay in all cases: NCI tumour cell line growth inhibition, 48 h
[1] = tested on: OVCAR-8
[2] = tested on: HT-29
[3] = tested on: HOP-62
[4] = tested on: IGROV-1
[5] = tested on: K562
[6] = tested on: SN12C
[7] = tested on: Malme-3M
[8] = tested on: NCI/ADR-RES
[9] = tested on: UACC-257
[10] = tested on: MDA-N
[11] = tested on: SK-OV-3
[12] = tested on: NCI-H522
[13] = tested on: SF-539
[14] = tested on: U-251
[15] = tested on: RPMI-8226
[16] = tested on: HL-60
[17] = tested on: SK-MEL-5
[18] = tested on: NCI-H226
[19] = tested on: A498
[20] = tested on: SK-MEL-2

In the case of `CNc1nc2c(C)ccc3nc(N(C)C)[nH]c3c-2n1`, the GI50 [1] was 34.5 µM (inactive), the GI50 [2] was 30.7 µM (inactive) and the GI50 [3] was 43.7 µM (inactive). For the same compound, the GI50 [4] was 47.8 µM (inactive), the GI50 [5] was 12.8 µM (inactive) and the GI50 [6] was 36.1 µM (inactive). The GI50 [7] was 31.1 µM (inactive), the GI50 [8] was 77.1 µM (inactive) and the GI50 [9] was 33.3 µM (inactive). The GI50 [10] was 33.8 µM (inactive), the GI50 [11] was 21.1 µM (inactive) and the GI50 [12] was 54 µM (inactive). The GI50 [13] was 24.8 µM (inactive), the GI50 [14] was 58.3 µM (inactive) and the GI50 [15] was 20.7 µM (inactive). The GI50 [16] was 26.9 µM (inactive), the GI50 [17] was 20.7 µM (inactive) and the GI50 [18] was 76.7 µM (inactive). The GI50 [19] was 85.1 µM (inactive) and the GI50 [20] was 93.1 µM (inactive).

With `O=C(O)c1nc2cc(C(F)(F)F)ccc2[nH]c1=O` the GI50 [1] was > 100 µM (inactive), the GI50 [2] was > 100 µM (inactive) and the GI50 [3] was > 100 µM (inactive). For the same compound, the GI50 [4] was > 100 µM (inactive), the GI50 [5] was > 100 µM (inactive) and the GI50 [6] was > 100 µM (inactive). The GI50 [7] was > 100 µM (inactive), the GI50 [8] was > 100 µM (inactive) and the GI50 [9] was > 100 µM (inactive). For the same compound, the GI50 [10] was > 100 µM (inactive), the GI50 [11] was > 100 µM (inactive) and the GI50 [12] was > 100 µM (inactive). The GI50 [13] was > 100 µM (inactive), the GI50 [14] was > 100 µM (inactive) and the GI50 [15] was > 100 µM (inactive). The GI50 [16] was > 100 µM (inactive), the GI50 [17] was > 100 µM (inactive) and the GI50 [18] was > 100 µM (inactive). For the same compound, the GI50 [19] was > 100 µM (inactive) and the GI50 [20] was > 100 µM (inactive).

For `O=C1c2c(F)c(F)c(F)c(F)c2SC2=NCCN12`, the GI50 [1] was 11.5 µM (inactive), the GI50 [2] was 3.18 µM (inactive) and the GI50 [3] was 18.1 µM (inactive). The GI50 [4] was 7.19 µM (inactive), the GI50 [5] was 2.1 µM (inactive) and the GI50 [6] was 9.25 µM (inactive). The GI50 [7] was 5.65 µM (inactive), the GI50 [8] was 10.4 µM (inactive) and the GI50 [9] was 8.57 µM (inactive). The GI50 [10] was 3.45 µM (inactive), the GI50 [11] was 15.3 µM (inactive) and the GI50 [12] was 2.82 µM (inactive). The GI50 [13] was 16.3 µM (inactive), the GI50 [14] was 8.87 µM (inactive) and the GI50 [15] was 4 µM (inactive). For the same compound, the GI50 [16] was 2.19 µM (inactive), the GI50 [17] was 14.8 µM (inactive) and the GI50 [18] was 16.2 µM (inactive). For the same compound, the GI50 [19] was 18.4 µM (inactive) and the GI50 [20] was 1.84 µM (inactive).

For `N#Cc1c(O)c2ccccc2[nH]c1=O`, the GI50 [1] was > 100 µM (inactive), the GI50 [2] was > 100 µM (inactive) and the GI50 [3] was > 100 µM (inactive). For the same compound, the GI50 [4] was > 100 µM (inactive), the GI50 [5] was > 100 µM (inactive) and the GI50 [6] was > 100 µM (inactive). The GI50 [7] was > 100 µM (inactive), the GI50 [8] was > 100 µM (inactive) and the GI50 [9] was > 100 µM (inactive). For the same compound, the GI50 [10] was > 100 µM (inactive), the GI50 [11] was > 100 µM (inactive) and the GI50 [12] was > 100 µM (inactive). For the same compound, the GI50 [13] was > 100 µM (inactive), the GI50 [14] was > 100 µM (inactive) and the GI50 [15] was > 100 µM (inactive). For the same compound, the GI50 [16] was > 100 µM (inactive), the GI50 [17] was > 100 µM (inactive) and the GI50 [18] was > 100 µM (inactive). For the same compound, the GI50 [19] was > 100 µM (inactive) and the GI50 [20] was > 100 µM (inactive).

`C=CCc1c(Cl)nc(Cl)nc1Cl` was tested, and the GI50 [1] was 0.274 µM (active), the GI50 [2] was 0.266 µM (active) and the GI50 [3] was 0.515 µM (active). The GI50 [4] was 0.323 µM (active), the GI50 [5] was < 0.0151 µM (active) and the GI50 [6] was 0.258 µM (active). For the same compound, the GI50 [7] was 0.159 µM (active), the GI50 [8] was 0.853 µM (active) and the GI50 [9] was 0.641 µM (active). For the same compound, the GI50 [10] was 0.0308 µM (active), the GI50 [11] was 1.32 µM (inactive) and the GI50 [12] was < 0.0191 µM (active). The GI50 [13] was 1.04 µM (active), the GI50 [14] was 0.578 µM (active) and the GI50 [15] was 0.301 µM (active). For the same compound, the GI50 [16] was > 100 µM (inactive), the GI50 [17] was 0.0818 µM (active) and the GI50 [18] was 0.0421 µM (active). The GI50 [19] was 1.94 µM (inactive) and the GI50 [20] was 0.478 µM (active).

In the case of `CC(C)=NOC(=O)CNC(=O)C(Cc1ccccc1)NC(=O)C(C)NC(=O)OC(C)(C)C` (stereo not given), the GI50 [1] was > 100 µM (inactive), the GI50 [2] was > 100 µM (inactive) and the GI50 [3] was > 100 µM (inactive). For the same compound, the GI50 [4] was > 100 µM (inactive), the GI50 [5] was > 100 µM (inactive) and the GI50 [6] was > 100 µM (inactive). The GI50 [7] was > 100 µM (inactive), the GI50 [8] was > 100 µM (inactive) and the GI50 [9] was > 100 µM (inactive). For the same compound, the GI50 [10] was > 100 µM (inactive), the GI50 [11] was > 100 µM (inactive) and the GI50 [12] was > 100 µM (inactive). For the same compound, the GI50 [13] was > 100 µM (inactive), the GI50 [14] was > 100 µM (inactive) and the GI50 [15] was > 100 µM (inactive). The GI50 [16] was > 100 µM (inactive), the GI50 [17] was > 100 µM (inactive) and the GI50 [18] was > 100 µM (inactive). For the same compound, the GI50 [19] was > 100 µM (inactive) and the GI50 [20] was > 100 µM (inactive).
